The results in this text go back to US12540143B2, “Methods and compositions for targeted protein degradation” (Ranok Therapeutics (Hangzhou) Co. Ltd., priority 2019, dated 2026).

Structures can show the parent of a compound that is named as a salt. Where two headings read alike, the source gives them in different places.

Assay [1] has as its target HSP90α (Homo sapiens, UniProt P07900). Briefly: HSP90α Binding Fluorescent Polarization (FP) Assay. The settings on record: competition with FITC-geldanamycin; read-out: HSP90 Binding Potency. How it is done:
HSP90α Binding Fluorescent Polarization (FP) Assay
A master mix was prepared with assay buffer, BSA and FITC-geldanamycin. In a 96-well plate, a serial 3-fold dilution of each compound was prepared ranging from 40 μM down until 2.0 nM. Also in a 96-well plate, recombinant HSP90α protein was diluted to 28 μg/ml. Then, in a 384-well plate, 10 μl of master mix and 5 μl of compound dilution were added per well to duplicate wells and mixed by brief shaking. Then 5 μl of diluted HSP90α protein was added per well, mixed by brief shaking, incubated at 25° C. for 30, 60 and 120 min and fluorescence was measured on an En Vision Plate Reader. Background-subtracted mP values were calculated from En Vision raw data and a four-parameter “log[inhibitor] vs. response” curve was fitted using GraphPad Prism 7.0.

The test system of assay [2] is MV4-11 cells. Kind of assay: MV4-11 Cytotoxicity Assay. In kind it is cell-based, human. The settings on record: Homo sapiens, read-out: MV4-11 cytotoxicity.
Assay [3] addresses T1, BRD4 (Homo sapiens, UniProt O60885).
T1 construct: endogenous in cells; host or cells: MV4-11
Kind of assay: BRD4 Degradation Flow Cytometry Assay in MV4-11 cells. The settings on record: for Percentage BRD4 degradation vs untreated: 24 hr, highest degradation percentage observed at concentrations between 40-1000 nM. The format is cell-based. As for the experimental part:
Protein Degradation Flow Cytometry
MV4-11 cells were plated in a 24-well tissue culture plate at a density of 350,000 cells/450 μL/well and incubated in 37° C./5% CO2 for 1 hr. Cells were then treated with compounds at various concentrations and incubated in 37° C./5% CO2 for 24 hr. Cells were harvested, washed once, counted and 200 μL of 1% paraformaldehyde/PBS was added and incubated for 15 min at room temperature. 200 μL of 1×PBS/0.4% Triton X-100 was added and incubated for 15 min at 4° C. Cells were washed three times and resuspended in 50 μL of 1×PBS/0.2% Triton X-100. 2 μL/10^6 cells of anti-BRD4 antibody (ABCAM, #128874) was added and mixed by pipetting up and down. Cells were incubated for 30 min at room temperature in the dark, washed three times and resuspended in 50 μL of 1×PBS/0.2% Triton X-100. Goat anti-rabbit IgG H&L antibody (1:2000 dilution) was added and mixed by pipetting up and down and incubated for 30 min at room temperature in the dark. Finally, cells were washed three times and resuspended in 200 μL of PBS for flow cytometric analysis.
On the technique in general: A flow cytometer gives signals particle by particle.

For assay [4], the system named is MYC protein. Kind of assay: MYC Protein Expression HTRF Assay in MV4-11 cells. In kind it is cell-based. The settings on record: Homo sapiens, 24 hr treatment. As for the experimental part: MYC protein expression was measured using the Human c-Myc Cell-based Assay Kit (Cisbio, #63ADK053PEG), a homogeneous time resolved fluorescence (HTRF) assay. […] Cells were collected by centrifugation, supernatant removed by aspiration and 10 μL of lysis buffer was added and incubated for 45 min at room temperature while shaking. In a 384-well plate, 10 μL of cell lysate/well was combined with 10 μL of premixed antibody solution containing anti-human MYC-Eu3+ Cryptate prepared in detection buffer and incubated overnight at room temperature, whereupon the signal was measured. The ratio of the acceptor and donor emission signals for each individual well were calculated (ratio=665 nm/620 nm[…]).
In general terms: Time-resolved FRET reads energy transfer from a long-lived donor to a nearby acceptor.

Assay [5] deals with T2, BRD4 (BD1+BD2) (Homo sapiens, UniProt O60885).
T2 construct: 1.8 μg/ml recombinant BRD4 (BD1+BD2 domains) protein
Briefly: BRD4 (BD1 + BD2) Binding HTRF Assay. The settings on record: read-out: BRD4 Binding Potency. How it is done: A master mix was prepared with assay buffer, 1.8 μg/ml recombinant BRD4 (BD1+BD2 domains) protein, and 200-fold dilutions of Tb-labeled donor and dye-labeled acceptor. 40-fold dilutions of acetylated and non-acetylated ligands were prepared in 1×BRD TR-FRET assay buffer. Also, a serial 3-fold dilution of each compound was prepared ranging from 40 μM down until 2.0 nM. In a 384-well plate, 5 μl diluted ligand and 5 μl of compound dilution were added per well to duplicate wells and mixed by brief shaking. Then 10 μl of master mix was added per well, mixed by brief shaking, incubated at 25° C. for 2 hr and fluorescence was measured on an En Vision Plate Reader. The 665 nm/615 nm ratio was calculated from EnVision raw data. Data were normalized using whole-plate averages of “positive” and “negative” readings. A four-parameter “log[inhibitor] vs. response” curve was fitted using GraphPad Prism 7.0.

In the case of `Cc1sc2c(c1C)C(c1ccc(Cl)cc1)=N[C@@H](CC(=O)NC(C)c1ccc(CN3CCC(Cc4ccc(-n5c(O)nnc5-c5cc(C(C)C)c(O)cc5O)cc4)CC3)cc1)c1nnc(C)n1-2` (stereo in doubt) [Compound 82, 2-((S)-4-(4-chlorophenyl)-2,3,9-trimethyl-6H-thieno[3,2-f][1,2,4]triazolo[4,3-a][1,4]diazepin-6-yl)-N—((R)-1-(4-((4-(4-(3-(2,4-dihydroxy-5-isopropylphenyl)-5-hydroxy-4H-1,2,4-triazol-4-yl)benzyl)piperidin-1-yl)methyl)phenyl)ethyl)acetamide hydrochloride], the IC50 is 100 to 1000 nM in assay [1] and less than 100 nM in assay [2] (MV4-11, 72 hr, CCK-8).
On to `Cc1sc2c(c1C)C(c1ccc(Cl)cc1)=N[C@H](CC(=O)N1CCC(CN3CCN(Cc4ccc(-n5c(O)nnc5-c5cc(C(C)C)c(O)cc5O)cc4)CC3)CC1)c1nnc(C)n1-2` [Compound 5, 2-((6R)-4-(4-chlorophenyl)-2,3,9-trimethyl-6H-thieno[3,2-f][1,2,4]triazolo[4,3-a][1,4]diazepin-6-yl)-1-(4-((4-(4-(3-(2,4-dihydroxy-5-isopropylphenyl)-5-hydroxy-4H-1,2,4-triazol-4-yl)benzyl)piperazin-1-yl)methyl)piperidin-1-yl)ethanone, trifluoroacetic acid], for which the “Percentage BRD4 degradation vs untreated” value in assay [3] (MV4-11 cells) is “C (Degradation < 10%)”. Further, the “BRD4 degradation (in words)” value in assay [3] (MV4-11 cells, flow cytometry) is listed as “does not degrade BRD4”. Besides, the IC50 in assay [4] is less than 100 nM; in assay [2] (MV4-11, 72 h), less than 100 nM.
As for `Cc1sc2c(c1C)C(c1ccc(Cl)cc1)=N[C@@H](CC(=O)N1CCC(CN3CCN(Cc4ccc(-n5c(O)nnc5-c5cc(C(C)C)c(O)cc5O)cc4)CC3)CC1)c1nnc(C)n1-2` [Compound 40, 2-((6S)-4-(4-chlorophenyl)-2,3,9-trimethyl-6H-thieno[3,2-f][1,2,4]triazolo[4,3-a][1,4]diazepin-6-yl)-1-(4-((4-(4-(3-(2,4-dihydroxy-5-isopropylphenyl)-5-hydroxy-4H-1,2,4-triazol-4-yl)benzyl)piperazin-1-yl)methyl)piperidin-1-yl)ethanone, trifluoroacetic acid], in assay [3] (MV4-11 cells), the “Percentage BRD4 degradation vs untreated” value is given as “A (Degradation > 50%)”. In addition, the “ability to degrade BRD4 after pretreatment” value in assay [3] (cells pretreated with a combination of a HSP90 binder and (+)-JQ1) is recorded as “significantly reduced”. The same molecule yielded an IC50 in assay [4] of less than 100 nM.
For `Cc1sc2c(c1C)C(c1ccc(Cl)cc1)=N[C@@H](CCN1CCC(CN3CCN(Cc4ccc(-n5c(O)nnc5-c5cc(C(C)C)c(O)cc5O)cc4)CC3)CC1)c1nnc(C)n1-2` [Compound 76, trifluoroacetic acid], the IC50 in assay [5] is more than 1000 nM; in assay [1], 100 to 1000 nM; in assay [2] (MV4-11, 72 h), less than 100 nM.
